Experimental data taken from patent US20240208992A1, “MACROCYCLES AS CFTR MODULATORS” (Idorsia Pharmaceuticals Ltd, priority 2021, published 2024).
Each block holds one compound with its values, some of them ahead of it.

Biological target: human F508del-CFTR (Homo sapiens, UniProt P13569, DEL508-508)
Assay: F508del-CFTR cell surface expression (corrector activity), DiscoveRx ß-galactosidase complementation chemiluminescence assay in recombinant U2OS cell line;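 further: U2OS cells co-expressing ProLink-tagged F508del-CFTR and a membrane-anchored enzyme acceptor, where more surface CFTR restores β-galactosidase activity measured by chemiluminescence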
Conditions: U2OS cells, 16h compound incubation; for EC50: EC50, F508del-CFTR cell surface expression, geomean of several measurements; for Emax: U2OS, in relation to the Emax of the corrector lumacaftor (=100%), arithmetic mean

Chain of human F508del-CFTR (P13569 with tags, fused parts or gaps DEL508-508): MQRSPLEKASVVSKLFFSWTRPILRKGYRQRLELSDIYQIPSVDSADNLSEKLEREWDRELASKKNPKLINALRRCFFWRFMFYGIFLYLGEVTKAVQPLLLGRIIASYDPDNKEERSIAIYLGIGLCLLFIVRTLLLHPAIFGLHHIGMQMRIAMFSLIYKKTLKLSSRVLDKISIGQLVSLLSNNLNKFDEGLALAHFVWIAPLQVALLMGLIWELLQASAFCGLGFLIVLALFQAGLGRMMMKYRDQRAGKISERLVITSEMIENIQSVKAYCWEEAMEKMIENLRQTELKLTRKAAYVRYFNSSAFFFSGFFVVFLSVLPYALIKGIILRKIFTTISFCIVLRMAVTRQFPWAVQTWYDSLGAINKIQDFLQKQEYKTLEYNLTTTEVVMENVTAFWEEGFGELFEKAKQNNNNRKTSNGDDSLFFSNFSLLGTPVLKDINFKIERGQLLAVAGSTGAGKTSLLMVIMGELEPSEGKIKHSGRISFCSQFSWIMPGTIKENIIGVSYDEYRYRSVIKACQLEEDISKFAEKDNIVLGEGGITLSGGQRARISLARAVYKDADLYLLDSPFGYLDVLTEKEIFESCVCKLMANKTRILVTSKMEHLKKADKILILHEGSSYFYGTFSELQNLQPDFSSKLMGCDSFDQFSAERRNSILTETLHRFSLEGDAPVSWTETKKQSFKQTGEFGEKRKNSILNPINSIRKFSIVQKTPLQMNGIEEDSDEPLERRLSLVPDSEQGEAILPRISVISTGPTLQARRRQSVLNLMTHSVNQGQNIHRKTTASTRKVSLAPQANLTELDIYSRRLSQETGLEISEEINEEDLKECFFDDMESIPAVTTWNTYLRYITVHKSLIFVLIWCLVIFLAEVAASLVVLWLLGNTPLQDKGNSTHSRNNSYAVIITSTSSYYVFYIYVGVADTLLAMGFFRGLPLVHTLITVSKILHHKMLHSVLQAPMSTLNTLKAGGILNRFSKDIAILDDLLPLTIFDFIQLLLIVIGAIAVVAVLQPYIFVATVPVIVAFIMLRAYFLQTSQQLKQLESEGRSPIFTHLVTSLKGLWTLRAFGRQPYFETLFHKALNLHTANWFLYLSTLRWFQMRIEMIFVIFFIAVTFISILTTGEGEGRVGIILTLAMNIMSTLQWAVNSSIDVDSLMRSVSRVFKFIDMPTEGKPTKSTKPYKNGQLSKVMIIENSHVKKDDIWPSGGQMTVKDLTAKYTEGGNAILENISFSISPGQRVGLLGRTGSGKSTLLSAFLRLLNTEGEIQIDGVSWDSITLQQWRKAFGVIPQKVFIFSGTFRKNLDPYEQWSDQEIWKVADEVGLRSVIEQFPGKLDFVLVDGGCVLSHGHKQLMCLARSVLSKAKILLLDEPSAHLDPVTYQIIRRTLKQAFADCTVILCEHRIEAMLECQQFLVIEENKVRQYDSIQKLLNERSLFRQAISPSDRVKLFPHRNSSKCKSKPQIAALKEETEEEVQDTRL

Compound: CC(C)C[C@H]1C(=O)N(C)[C@H](Cn2cc(-c3ccc(F)cn3)nn2)C(=O)N[C@H](Cc2ccccc2)COc2cnc3ccc(F)cc3c2C(=O)N[C@H](C(=O)NCCc2noc(C3CC3)n2)CC(=O)N1C [Example 885, (3S,7S,10R,13R)-13-benzyl-N-(2-(5-cyclopropyl-1,2,4-oxadiazol-3-yl)ethyl)-20-fluoro-10-((4-(5-fluoropyridin-2-yl)-1H-1,2,3-triazol-1-yl)methyl)-7-isobutyl-6,9-dimethyl-1,5,8,11-tetraoxo-1,2,3,4,5,6,7,8,9,10,11,12,13,14-tetradecahydro-[1]oxa[4,7,10,14]tetraazacycloheptadecino[17,16-c]quinoline-3-carboxamide]
EC50: 0.078 µM
Emax: 328%

Compound: CC(C)C[C@H]1C(=O)N(C)[C@H](Cc2cc(C(C)(C)C)no2)C(=O)N[C@H](Cc2ccccc2)COc2cnc3ccc(F)cc3c2C(=O)N[C@H](C(=O)NCCc2noc(C3CC3)n2)CC(=O)N1C [Example 886, (3S,7S,10R,13R)-13-benzyl-10-((3-(tert-butyl)isoxazol-5-yl)methyl)-N-(2-(5-cyclopropyl-1,2,4-oxadiazol-3-yl)ethyl)-20-fluoro-7-isobutyl-6,9-dimethyl-1,5,8,11-tetraoxo-1,2,3,4,5,6,7,8,9,10,11,12,13,14-tetradecahydro-[1]oxa[4,7,10,14]tetraazacycloheptadecino[17,16-c]quinoline-3-carboxamide]
EC50: 0.015 µM
Emax: 359%

Compound: CC(C)C[C@H]1C(=O)N(C)[C@H](CCc2nc(-c3ccc(F)cn3)no2)C(=O)N[C@H](Cc2ccccc2)COc2cnc3ccc(F)cc3c2C(=O)N[C@H](C(=O)NCCc2noc(C3CC3)n2)CC(=O)N1C [Example 887, (3S,7S,10R,13R)-13-benzyl-N-(2-(5-cyclopropyl-1,2,4-oxadiazol-3-yl)ethyl)-20-fluoro-10-(2-(3-(5-fluoropyridin-2-yl)-1,2,4-oxadiazol-5-yl)ethyl)-7-isobutyl-6,9-dimethyl-1,5,8,11-tetraoxo-1,2,3,4,5,6,7,8,9,10,11,12,13,14-tetradecahydro-[1]oxa[4,7,10,14]tetraazacycloheptadecino[17,16-c]quinoline-3-carboxamide]
EC50: 0.111 µM
Emax: 340%

Compound: Cc1cc2c(c3cccnc13)C(=O)N[C@H](C(=O)NCCn1nnc(C3CC3)n1)CC(=O)N(C)[C@@H](CC(C)C)C(=O)N1CCCC[C@@H]1C(=O)N[C@H](Cc1ccccc1)CO2 [Example 888, (9S,13S,19aR,22R)-22-benzyl-N-(2-(5-cyclopropyl-2H-tetrazol-2-yl)ethyl)-13-isobutyl-2,12-dimethyl-7,11,14,20-tetraoxo-7,8,9,10,11,12,13,14,17,18,19,19a,20,21,22,23-hexadecahydro-16H-pyrido[2′,1′:6,7][1]oxa[4,7,10,14]tetraazacycloheptadecino[16,17-f]quinoline-9-carboxamide]
EC50: 0.17 µM
Emax: 410%

Compound: Cc1cc2c3c(ccc2cn1)OC[C@@H](Cc1ccccc1)NC(=O)[C@@H](Cc1nc(C(F)(F)F)no1)N(C)C(=O)[C@H](CC(C)C)N(C)C(=O)C[C@@H](C(=O)NCCc1noc(C2CC2)n1)NC3=O [Example 889, (3S,7S,10R,13R)-13-benzyl-N-(2-(5-cyclopropyl-1,2,4-oxadiazol-3-yl)ethyl)-7-isobutyl-6,9,20-trimethyl-1,5,8,11-tetraoxo-10-((3-(trifluoromethyl)-1,2,4-oxadiazol-5-yl)methyl)-1,2,3,4,5,6,7,8,9,10,11,12,13,14-tetradecahydro-[1]oxa[4,7,10,14]tetraazacycloheptadecino[16,17-f]isoquinoline-3-carboxamide]
EC50: 0.034 µM
Emax: 403%

Compound: CC(C)C[C@H]1C(=O)N(C)[C@H](Cc2nc(-c3ccc(F)cn3)no2)C(=O)N[C@H](Cc2ccccc2)COc2ccc3ncc(F)cc3c2C(=O)N[C@H](C(=O)NC[C@@H](O)c2nc(C3CC3)no2)CC(=O)N1C [Example 892, (3S,7S,10R,13R)-13-benzyl-N-((R)-2-(3-cyclopropyl-1,2,4-oxadiazol-5-yl)-2-hydroxyethyl)-20-fluoro-10-((3-(5-fluoropyridin-2-yl)-1,2,4-oxadiazol-5-yl)methyl)-7-isobutyl-6,9-dimethyl-1,5,8,11-tetraoxo-1,2,3,4,5,6,7,8,9,10,11,12,13,14-tetradecahydro-[1]oxa[4,7,10,14]tetraazacycloheptadecino[16,17-f]quinoline-3-carboxamide]
EC50: 0.467 µM
Emax: 442%

Compound: COc1cc(CCNC(=O)[C@@H]2CC(=O)N(C)[C@@H](CC(C)C)C(=O)N(C)[C@H](Cc3nc(C(F)(F)F)no3)C(=O)N[C@H](Cc3ccccc3)COc3cc(C)nc(OC)c3C(=O)N2)on1 [Example 897, (3R,6R,9S,13S)-3-benzyl-9-isobutyl-16-methoxy-N-(2-(3-methoxyisoxazol-5-yl)ethyl)-7,10,18-trimethyl-5,8,11,15-tetraoxo-6-((3-(trifluoromethyl)-1,2,4-oxadiazol-5-yl)methyl)-2,3,4,5,6,7,8,9,10,11,12,13,14,15-tetradecahydropyrido[3,4-p][1]oxa[4,7,10,14]tetraazacycloheptadecine-13-carboxamide]
EC50: 0.032 µM
Emax: 454%

Compound: COc1cc(CCNC(=O)[C@@H]2CC(=O)N(C)[C@@H](CC(C)C)C(=O)N(C)[C@H](Cc3nc(C(F)(F)F)no3)C(=O)N[C@H](Cc3ccccc3)COc3ccc4cnc(C)cc4c3C(=O)N2)on1 [Example 898, (3S,7S,10R,13R)-13-benzyl-7-isobutyl-N-(2-(3-methoxyisoxazol-5-yl)ethyl)-6,9,20-trimethyl-1,5,8,11-tetraoxo-10-((3-(trifluoromethyl)-1,2,4-oxadiazol-5-yl)methyl)-1,2,3,4,5,6,7,8,9,10,11,12,13,14-tetradecahydro-[1]oxa[4,7,10,14]tetraazacycloheptadecino[16,17-f]isoquinoline-3-carboxamide]
EC50: 0.022 µM
Emax: 440%

Compound: Cc1cc2c3c(ccc2cn1)OC[C@@H](Cc1ccccc1)NC(=O)C1(CC1)N(C)C(=O)[C@H](CC(C)C)N(C)C(=O)C[C@@H](C(=O)NCCc1noc(C2CC2)n1)NC3=O [Example 900, (3′S,7′S,13′R)-13′-benzyl-N-(2-(5-cyclopropyl-1,2,4-oxadiazol-3-yl)ethyl)-7′-isobutyl-6′,9′,20′-trimethyl-1′,5′,8′,11′-tetraoxo-2′,3′,4′,5′,6′,7′,8′,9′,11′,12′,13′,14′-dodecahydro-1′H-spiro[cyclopropane-1,10′-[1]oxa[4,7,10,14]tetraazacycloheptadecino[16,17-f]isoquinoline]-3′-carboxamide]
EC50: 0.831 µM
Emax: 374%

The remaining lines, values ahead:

EC50: 0.034 µM
Emax: 409%
Compound: Cc1cc2c3c(ccc2cn1)OC[C@@H](Cc1ccccc1)NC(=O)[C@@H](Cc1nc(C(F)(F)F)no1)N(C)C(=O)[C@H](CC(C)C)N(C)C(=O)C[C@@H](C(=O)NCCn1nnc(C2CC2)n1)NC3=O [Example 890, (3S,7S,10R,13R)-13-benzyl-N-(2-(5-cyclopropyl-2H-tetrazol-2-yl)ethyl)-7-isobutyl-6,9,20-trimethyl-1,5,8,11-tetraoxo-10-((3-(trifluoromethyl)-1,2,4-oxadiazol-5-yl)methyl)-1,2,3,4,5,6,7,8,9,10,11,12,13,14-tetradecahydro-[1]oxa[4,7,10,14]tetraazacycloheptadecino[16,17-f]isoquinoline-3-carboxamide]

EC50: 0.216 µM
Emax: 394%
Compound: CC(C)C[C@H]1C(=O)N(C)[C@H](CC(F)F)C(=O)N[C@H](Cc2ccccc2)COc2ccc3ncc(F)cc3c2C(=O)N[C@H](C(=O)NCCn2nnc(C3CC3)n2)CC(=O)N1C [Example 893, (3S,7S,10R,13R)-13-benzyl-N-(2-(5-cyclopropyl-2H-tetrazol-2-yl)ethyl)-10-(2,2-difluoroethyl)-20-fluoro-7-isobutyl-6,9-dimethyl-1,5,8,11-tetraoxo-1,2,3,4,5,6,7,8,9,10,11,12,13,14-tetradecahydro-[1]oxa[4,7,10,14]tetraazacycloheptadecino[16,17-f]quinoline-3-carboxamide]

EC50: 0.339 µM
Emax: 431%
Compound: CCOCC[C@@H]1C(=O)N[C@H](Cc2ccccc2)COc2ccc3ncc(F)cc3c2C(=O)N[C@H](C(=O)NCCc2cc(C)no2)CC(=O)N(C)[C@@H](CC(C)C)C(=O)N1C [Example 894, (3S,7S,10R,13R)-13-benzyl-10-(2-ethoxyethyl)-20-fluoro-7-isobutyl-6,9-dimethyl-N-(2-(3-methylisoxazol-5-yl)ethyl)-1,5,8,11-tetraoxo-1,2,3,4,5,6,7,8,9,10,11,12,13,14-tetradecahydro-[1]oxa[4,7,10,14]tetraazacycloheptadecino[16,17-f]quinoline-3-carboxamide]

EC50: 0.136 µM
Emax: 409%
Compound: CCOCC[C@@H]1C(=O)N[C@H](Cc2ccccc2)COc2ccc3ncc(F)cc3c2C(=O)N[C@H](C(=O)NCCc2cc(OC)no2)CC(=O)N(C)[C@@H](CC(C)C)C(=O)N1C [Example 895, (3S,7S,10R,13R)-13-benzyl-10-(2-ethoxyethyl)-20-fluoro-7-isobutyl-N-(2-(3-methoxyisoxazol-5-yl)ethyl)-6,9-dimethyl-1,5,8,11-tetraoxo-1,2,3,4,5,6,7,8,9,10,11,12,13,14-tetradecahydro-[1]oxa[4,7,10,14]tetraazacycloheptadecino[16,17-f]quinoline-3-carboxamide]

EC50: 0.188 µM
Emax: 427%
Compound: CCOCC[C@@H]1C(=O)N[C@H](Cc2ccccc2)COc2ccc3ncc(F)cc3c2C(=O)N[C@H](C(=O)NCCn2nnc(C3CC3)n2)CC(=O)N(C)[C@@H](CC(C)C)C(=O)N1C [Example 896, (3S,7S,10R,13R)-13-benzyl-N-(2-(5-cyclopropyl-2H-tetrazol-2-yl)ethyl)-10-(2-ethoxyethyl)-20-fluoro-7-isobutyl-6,9-dimethyl-1,5,8,11-tetraoxo-1,2,3,4,5,6,7,8,9,10,11,12,13,14-tetradecahydro-[1]oxa[4,7,10,14]tetraazacycloheptadecino[16,17-f]quinoline-3-carboxamide]
